Data on three molecules can be found in patent US7404962B1, “Combination kit used in the treatment of malaria” (Nicholas Piramal India Limited, priority 2000, dated 2008).

SMILES strings stand for the structures. Where two headings read alike, the source gives them in different places.

For data set [1] the following is noted: literature; cited from earlier work.
For data set [2] the following is noted: literature, cited from earlier work.
A short description of data set [3]: Methemoglobin toxicity study in healthy human volunteers. The data set is classed as in vivo. The protocol: 3-[1-[[4-[(6-methoxy-8-quinolinyl)amino]pentyl]amino]ethylidene]-dihydro-2(3H)furanone (I) was evaluated vis-à-vis primaquine for toxicity related to methemoglobin formation in human.
The methemoglobin toxicity of compound I was evaluated via-à-vis that of primaquine in normal human volunteers.

For the next data set, the system named is P. cynomolgi. The data set can be described thus: Radical curative activity against P. cynomolgi in rhesus monkeys. It counts as in vivo. The protocol:
The radical curative anti-malarial activity and toxicity of the compound I was evaluated and compared with that caused by primaquine.
Combination regimen of chloroquine and 3-[1-[[4-[(6-methoxy-8-quinolinyl)amino]pentyl]amino]ethylidene]-dihydro-2(3H)furanone(I) tested against P. cynomolgi in rhesus monkeys.
The therapeutic effect of the combination regimen consisting of chloroquine and 3-[1-[[4-[(6-methoxy-8-quinolinyl)amino]pentyl]amino]-ethylidene]-4,5-dihydro-2(3H)furanone (I) was tested against P. cynomolgi in rhesus monkeys. 3-[1-[[4-[(6-methoxy-8-quinolinyl)-amino]pentyl]amino]ethylidene]-dihydro-2(3H)furanone(I) was administered in the dose level of 4.00 mg/kg (to 3 monkeys), 3.00 mg/kg (to 3 monkeys), 2.50 mg/kg (to 4 monkeys), 2.00 mg/kg (to 3 monkeys) and 1.25 mg/kg (to 9 monkeys) for 7 days. Chloroquine was administered as a companion drug at 5 mg/kg (base) dose. Minimum curative dose of compound I was found 1.25 mg/kg in 9 monkeys.

A further data set has as its system P. vivax. The data set can be described thus: Clinical evaluation of the combination kit in patients, one year surveillance study. The settings on record: compound I 25 mg vs primaquine 15 mg, each with chloroquine. The data set is classed as in vivo, human. As for the experimental part: The efficacy of the combination kit of the present invention, containing compound I (25 mg) was clinically evaluated and compared with primaquine (15 mg) used in combination with chloroquine in a group of patients over a one year surveillance study.

In data set [4] the test system is anti-oxidant defense enzymes. The following applies: literature; cited from earlier work.

As to `COc1cc(C)c2c(Oc3cccc(C(F)(F)F)c3)c(OC)cc(NC(C)CCCN)c2n1` (stereo not shown) [tafenoquine, reference compound], the “methemoglobin formation / toxicity versus primaquine” value in data set [1] is “almost three times more than that of primaquine”. The “anti-relapse activity versus primaquine” value in data set [2] is “more effective than primaquine”.
As to `COc1cc(NC(C)CCCN)c2ncccc2c1` (stereo not shown) [primaquine, reference compound], in data set [3] (healthy human volunteers, 15 mg daily for 7 days), the “methemoglobin level after dosing” value is reported as 16.23%. For the same molecule, the “methemoglobin level before dosing” value in data set [3] (healthy human volunteers, starting level) was determined as 3.97%.
Regarding `COc1cc(NC(C)CCCN/C(C)=C2/CCOC2=O)c2ncccc2c1` (stereo not shown) [compound I, 3-[1-[[4-[(6-methoxy-8-quinolinyl)amino]pentyl]amino]ethylidene]-dihydro-2(3H)-furanone], in data set [1], the “methemoglobin formation / toxicity versus primaquine” value is given as “less methemoglobin formation”; the toxicity versus primaquine entry was “safer and less toxic”. Also, in the data set with P. cynomolgi (2.0, 2.50, 3.00 and 4.00 mg/kg (base) for 7 days, chloroquine 5 mg/kg (base)), the “curative effect at doses higher than 1.25 mg/kg” value is given as “curative”. The Minimum curative dose in the data set on P. cynomolgi (9 rhesus monkeys, 7 days, chloroquine companion drug at 5 mg/kg (base)) worked out at 1.25 mg/kg. Also, the “blood smears after stopping the treatment” value with P. cynomolgi (all monkeys observed over a period of 100 days) is on record as “remained negative”. Moreover, the curative with P. cynomolgi (rhesus monkeys, 7 days, dose range 1.25 mg/kb to 4 mg/kg) is recorded as 100%. Besides, the “relapse after stopping the treatment” value in the data set on P. cynomolgi (rhesus monkeys, up to 100 days after stopping the treatment) is “no relapse observed”. Besides, the “anti-relapse activity versus primaquine” value in data set [2] is reported as “comparable to Primaquine”. Besides, in data set [2] (listed as compound of formula (I)), the “anti-relapse activity versus primaquine” value is reported as “comparable to primaquine”. In the data set with P. vivax, the “radical curative activity versus primaquine” value is “as effective as primaquine”. For the same molecule, the “methemoglobin level before dosing” value in data set [3] (human, in vivo) came out at 2.29%. In data set [4], the “effect on anti-oxidant defense enzymes versus primaquine” value was “less effect on anti-oxidant defense enzymes than primaquine”.
